Laboratory results published in ChEMBL document CHEMBL3137667, “[Drug-induced liver injury; fourteenth updated edition of the bibliographic database of liver injuries and related drugs]” (Gastroenterol Clin Biol, 2004).

How the values were obtained:
[1] = Highest frequency of acute liver toxicity observed during clinical trials, expressed as a percentage. [column '% AIGUE' in source]; details: human
[2] = human
[3] = human, serum, 4383 h
[4] = Highest frequency of moderate liver toxicity observed during clinical trials, expressed as a percentage. [column '% BIOL' in source]; details: human
[5] = human; remark: listed apart in the source
[6] = human; remark: listed apart in the source
[7] = human; remark: listed apart in the source
[8] = human; remark: listed apart in the source
[9] = human; remark: listed apart in the source
[10] = human; remark: listed apart in the source
[11] = human, serum
[12] = human; remark: listed apart in the source
[13] = human, serum; remark: listed apart in the source
[14] = human; remark: listed apart in the source
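Wherever Hepatotoxicity (association with vascular disease) is given: count of indexed literature references reporting vascular liver injury in humans, e.g. peliosis hepatitis, hepatic veno-occlusive disease or Budd-Chiari syndrome.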
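Wherever Hepatotoxicity (benign tumour) is given: value is a count of indexed literature references citing a benign tumour confirmed by histopathology.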
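Wherever Hepatotoxicity (choleostasis) is given: human cholestatic liver injury, shown by histopathology or by peak ALT or AST elevation over alkaline phosphatase ratio below 2, value counts indexed literature reports.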
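Wherever Hepatotoxicity (chronic liver disease) is given: chronic liver injury confirmed by histopathology or persistently raised serum aminotransferase activity beyond 6 months, value given as the count of indexed literature references.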
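Wherever Hepatotoxicity (cirrhosis) is given: value is a count of indexed literature references reporting cirrhosis confirmed by histopathology.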
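Wherever Hepatotoxicity (cytolytic) is given: human cytolytic liver injury, shown by histopathology or by a ratio above 5 of peak ALT or AST elevation to alkaline phosphatase elevation, value counts indexed references.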
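Wherever Hepatotoxicity (granulomatous hepatitis) is given: value is a count of indexed literature references reporting granulomatous liver disease confirmed by histopathology.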
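Wherever Hepatotoxicity (malignant tumour) is given: malignant tumour confirmed by histopathology, value gives the count of indexed literature references reporting it.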
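Wherever Hepatotoxicity (severe hepatitis) is given: human clinical data: severe hepatitis, meaning potentially life-threatening liver failure or clinically observed cases, the value counts how many indexed literature references report it.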
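Wherever Hepatotoxicity (steatosis) is given: steatosis confirmed by histopathology, value is the count of indexed references.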

Row | Compound | Hepatotoxicity (acute) [1] [%] | Hepatotoxicity (malignant tumour) [2] | Hepatotoxicity (chronic liver disease) [3] | Hepatotoxicity (moderate) [4] [%] | Hepatotoxicity (choleostasis) [5] | Hepatotoxicity (benign tumour) [6] | Hepatotoxicity (cytolytic) [7] | Hepatotoxicity (steatosis) [8] | Hepatotoxicity (cirrhosis) [9] | Hepatotoxicity (severe hepatitis) [10] | Hepatotoxicity (moderate) [11] | Hepatotoxicity (association with vascular disease) [12] | Hepatotoxicity (acute) [13] | Hepatotoxicity (granulomatous hepatitis) [14] | Hepatotoxicity (acute) ([1]; Liver) [%] | Hepatotoxicity (moderate) ([4]; Liver) [%] | Hepatotoxicity (choleostasis) ([5]; Liver) | Hepatotoxicity (cytolytic) ([7]; Liver) | Hepatotoxicity (severe hepatitis) ([10]; Liver) | Hepatotoxicity (granulomatous hepatitis) ([14]; Liver)
1 | CC1CN(c2cc3c(cc2F)c(=O)c(C(=O)O)cn3-c2ccc(F)cc2F)CCN1 (centres undefined) [TEMAFLOXACIN] | 0 | 0 | 0 | 44.4 | 0 | 0 | 0 | 0 | 0 | 0 | 33 | 0 | 0 | 0 | – | – | – | – | – | –
2 | Cn1nnc2c(C(N)=O)ncn2c1=O [TEMOZOLOMIDE] | 3 | 0 | 0 | 47.5 | 0 | 0 | 1 | 0 | 0 | 0 | 1 | 0 | 1 | 0 | – | – | – | – | – | –
3 | NC(=O)N1C(=O)/C(=C(\O)c2cccs2)c2cc(Cl)ccc21 [TENIDAP] | 0.8 | 0 | 0 | 18.8 | 1 | 0 | 1 | 0 | 0 | 0 | 3 | 0 | 2 | 0 | – | – | – | – | – | –
4 | COc1ccc(-n2nc(CCC(=O)N(C)O)cc2-c2ccc(Cl)cc2)cc1 [TEPOXALIN] | 0 | 0 | 0 | 2.5 | 0 | 0 | 0 | 0 | 0 | 0 | 1 | 0 | 0 | 0 | – | – | – | – | – | –
5 | C[C@@H]1C[C@H](C)CN(S(=O)(=O)c2ccc(Cl)c(C(=O)O)c2)C1 [TIBRIC ACID] | 0 | 0 | 0 | 0 | 0 | 0 | 0 | 0 | 0 | 0 | 1 | 0 | 0 | 0 | – | – | – | – | – | –
6 | CC(C)CCOc1ccc(NC(=S)Nc2ccc(OCCC(C)C)cc2)cc1 [TIOCARLIDE] | 0.4 | 0 | 0 | 4.5 | 0 | 0 | 2 | 0 | 0 | 0 | 1 | 0 | 2 | 0 | – | – | – | – | – | –
7 | Clc1ccc(C(Cn2ccnc2)OCc2ccsc2Cl)c(Cl)c1 (centres undefined) [TIOCONAZOLE] | – | 0 | 0 | – | – | 0 | – | 0 | 0 | – | 1 | 0 | 0 | – | 0 | 5.3 | 0 | 0 | 0 | 0
8 | O=C1CC2(CCCC2)CC(=O)N1CCCCN1CCN(c2nsc3ccccc23)CC1 [TIOSPIRONE] | 0 | 0 | 0 | 7.1 | 0 | 0 | 0 | 0 | 0 | 0 | 1 | 0 | 0 | 0 | – | – | – | – | – | –
9 | CC[C@@]1(O)C(=O)OCc2c1cc1n(c2=O)Cc2cc3c(CN(C)C)c(O)ccc3nc2-1 [TOPOTECAN] | 0 | 0 | 0 | 5.3 | 0 | 0 | 0 | 0 | 0 | 0 | 1 | 0 | 0 | 0 | – | – | – | – | – | –
10 | Cc1cccc(Nc2ccncc2S(=O)(=O)NC(=O)NC(C)C)c1 [TORSEMIDE] | 0 | 0 | 0 | 0.6 | 0 | 0 | 0 | 0 | 0 | 0 | 1 | 0 | 0 | 0 | – | – | – | – | – | –
11 | NC1CCN(c2nc3c(cc2F)c(=O)c(C(=O)O)cn3-c2ccc(F)cc2F)C1 (centres undefined) [TOSUFLOXACIN] | 0 | 0 | 0 | 6.1 | 0 | 0 | 0 | 0 | 0 | 0 | 3 | 0 | 0 | 0 | – | – | – | – | – | –
12 | COc1cccc(C2(O)CCCCC2CN(C)C)c1 (centres undefined) [TRAMADOL] | 0 | 0 | 0 | 0 | 0 | 0 | 0 | 0 | 0 | 0 | 1 | 0 | 0 | 0 | – | – | – | – | – | –
13 | OC(CCN1CCCCC1)(c1ccccc1)C1CCCCC1 (centres undefined) [TRIHEXYPHENIDYL] | – | 0 | 0 | – | – | 0 | – | 0 | 0 | – | 0 | 0 | 1 | – | 0 | 0 | 0 | 1 | 1 | 0
14 | COc1cc(NCc2ccc3nc(N)nc(N)c3c2C)cc(OC)c1OC [TRIMETREXATE] | 8 | 0 | 0 | 25 | 0 | 0 | 0 | 0 | 0 | 0 | 10 | 0 | 1 | 0 | – | – | – | – | – | –
15 | CCCCC(C)(C)[C@H](O)/C=C/[C@H]1[C@H](C)CC(=O)[C@@H]1C/C=C\CCCC(=O)O [TRIMOPROSTIL] | 0 | 0 | 0 | 0 | 0 | 0 | 0 | 0 | 0 | 0 | 1 | 0 | 0 | 0 | – | – | – | – | – | –
16 | CN(C)CCN(Cc1ccccc1)c1ccccn1 [TRIPELENNAMINE] | 0 | 0 | 0 | 0 | 1 | 0 | 1 | 0 | 0 | 0 | 0 | 0 | 1 | 0 | – | – | – | – | – | –
